The results in this text go back to US11596632B2, “JAK1 pathway inhibitors for the treatment of gastrointestinal disease” (Incyte Corporation, priority 2018, dated 2023).

Series [1] has as its system oxazolone-induced colitis in BALB/c mice. The series can be described thus: Mouse oxazolone-induced colitis model. Type of series: in vivo.
Series [2] deals with human JAK1 (a.a. 837-1142) (Homo sapiens (Human), UniProt P23458). The series can be described thus: In vitro JAK kinase assay (HTRF), JAK1. To be noted: 1 mM ATP. In kind it is biochemical. How it is done:
(§1) The catalytic activity of JAK1, JAK2 or JAK3 was assayed by measuring the phosphorylation of a biotinylated peptide. The phosphorylated peptide was detected by homogenous time resolved fluorescence (HTRF). […] Reactions are carried out at room temperature for 1 hour and then stopped with 20 μL 45 mM EDTA, 300 nM SA-APC, 6 nM Eu-Py20 in assay buffer (Perkin Elmer, Boston, Mass.). Binding to the Europium labeled antibody takes place for 40 minutes and HTRF signal was measured on a Fusion plate reader (Perkin Elmer, Boston, Mass.).
In general terms: In TR-FRET formats the signal depends on donor and acceptor labels being close together.

Another series has as its target JAK2 (a.a. 828-1132) (Homo sapiens (Human), UniProt O60674). Briefly: In vitro JAK kinase assay (HTRF), JAK2 relative to JAK1. Conditions: IC50 ratio, 1 mM ATP. Type of series: biochemical. How it is done:
as §1

A short description of series [3]: Quantitative autoradioluminography (QARL) of colon sections. To be noted: ex vivo, 100 and 1000 nM apical, 1 h. In kind it is in vitro ADME, human. As to the method:
Intestinal tissue permeation studies were performed using a vertical Ussing diffusion chamber system (Harvard Apparatus, Holliston, Mass.) for healthy tissues. Frozen tissues were thawed to ambient temperature and rinsed with pre-warmed KRB buffer used for dose formulation before being gently placed on the apparatus. Permeation was carried out mucosal-to-serosal at 37° C. for 1 hour with test article in KRB buffer added to the mucosal side. The receiver side of Ussing chamber containing blank KRB buffer was stirred with air bubbles by an aerator. Due to the limited availability of the samples, UC tissues were mounted (mucosal side up) on one end of a polypropylene tube with both ends cut open, and serosal side placed on blank KRB buffer in a vial with a stirring bar. KRB containing the test article was added into the tube and thus the mucosal side of the tissue was exposed to test article during the incubation. After 1 hour incubation at 37° C., samples (100-500 μL) were taken from both donor and receiver side, and then transferred to a 1.5 mL tube for evaluating the permeation. […]
All response curves determined for image analysis calibration were generated using a weighted 1st degree, polynomial, linear equation (1/MDC/mm^2). […]
The LLOQ was determined as 3 times the mean background for each panel. […]

Series [4] relates to IL-6 stimulated phosphorylation of STAT3 in PBMCs. Briefly: IL-6 stimulated STAT3 phosphorylation in human PBMC. In kind it is cell-based. To be noted: read-out: in vitro IC50 for suppression of IL-6 stimulated phosphorylation of STAT3 in PBMCs (JAK1 inhibition). As to the method:
Two different assays can be used to understand the functional activity of JAK1 inhibition. The first is a standard cell based assay and the other using whole blood. The former is conducted using human peripheral blood mononuclear cells (PBMC); briefly, the cells are stimulated with IL-6 to increase JAK1 activity, which is measured via phosphorylated STAT3. As increasing concentrations of Compound 1 are added, a corresponding decrease in phosphorylated STAT3 is observed. This assay is appropriate to assess JAK1 activity and/or the inhibitory activity of Compound 1 in samples that are devoid of serum proteins, e.g., feces samples.

pIC50: −log10 of the molar value. Entries after “also recorded” stand apart in the source; their conditions may differ. A value given as a limit tells only on which side of the number the result lay.

Chain of JAK2 (a.a. 828-1132) (O60674 828-1132): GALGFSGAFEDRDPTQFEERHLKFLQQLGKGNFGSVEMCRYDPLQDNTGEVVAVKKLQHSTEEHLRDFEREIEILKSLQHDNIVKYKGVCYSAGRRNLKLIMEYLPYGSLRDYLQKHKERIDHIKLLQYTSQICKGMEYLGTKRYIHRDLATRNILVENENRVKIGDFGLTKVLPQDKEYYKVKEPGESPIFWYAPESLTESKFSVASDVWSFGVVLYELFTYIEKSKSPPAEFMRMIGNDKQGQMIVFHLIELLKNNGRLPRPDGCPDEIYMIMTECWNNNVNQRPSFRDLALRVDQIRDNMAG
Chain of human JAK1 (a.a. 837-1142) (P23458 837-1142): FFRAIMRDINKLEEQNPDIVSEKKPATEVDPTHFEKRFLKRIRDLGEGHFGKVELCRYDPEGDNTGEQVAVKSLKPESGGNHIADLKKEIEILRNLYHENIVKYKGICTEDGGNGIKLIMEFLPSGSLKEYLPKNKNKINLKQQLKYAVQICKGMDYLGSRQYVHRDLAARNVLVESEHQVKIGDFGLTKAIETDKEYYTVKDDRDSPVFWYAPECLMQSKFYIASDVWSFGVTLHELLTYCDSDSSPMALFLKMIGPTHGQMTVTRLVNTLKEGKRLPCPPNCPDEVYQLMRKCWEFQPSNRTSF

As usually defined, the pIC50 is the IC50 on a negative log10 scale, so that one unit is a factor of ten. With `N#CCC1(n2cc(-c3ncnc4[nH]ccc34)cn2)CN(C2CCN(C(=O)c3ccnc(C(F)(F)F)c3F)CC2)C1` [Compound 1, {1-{1-[3-Fluoro-2-(trifluoromethyl)isonicotinoyl]piperidin-4-yl}-3-[4-(7H-pyrrolo[2,3-d]pyrimidin-4-yl)-1H-pyrazol-1-yl]azetidin-3-yl}acetonitrile], in series [1] (3 mg/kg IC BID), the colon shortening result was “significantly ameliorated colon shortening; also recorded: significantly (p<0.05) reduced colon shortening”. Moreover, in series [1] (30 mg/kg BID oral), the macroscopic tissue pathology entry is “ameliorating macroscopic tissue pathology”; the “normalized colon weight (inflammatory swelling)” value was “reducing normalized colon weight”; the “recovery from diarrhea and rectal bleeding (symptoms)” value was “reduces symptoms; also recorded: efficacious in accelerating recovery from diarrhea and rectal bleeding”. The colon shortening result in series [1] (30 mg/kg PO BID) is recorded as “significantly ameliorated colon shortening; also recorded: significant (p<0.05) reduction in colon shortening”. Moreover, the “stool consistency and fecal occult blood scoring” value in series [1] (twice daily, orally or intracolonically, vs vehicle) is “significantly ameliorated stool consistency and reduced fecal occult blood scoring”. Besides, in series [2], the pIC50 is greater than 8.00. The JAK2/JAK1 on JAK2 (a.a. 828-1132) is reported as greater than 10. Also, the “penetration into colon tissue layers” value in series [3] was “penetrated into the mucosal layer and, to a lesser extent, submucosal layer in a concentration dependent manner”. Further, the pIC50 in series [4] was 7.24.
